This passage reports IC50 results from patent US20240124504A1, “AROMATIC HETEROCYCLIC COMPOUND, AND PHARMACEUTICAL COMPOSITION AND APPLICATION THEREOF” (GT APEIRON THERAPEUTICS LIMITED, priority 2020, published 2024).

Structures are written as SMILES. Read-outs that look alike come from different tables or passages of the source. A value given as a limit tells only on which side of the number the result lay.

In general, IC50 refers to the concentration at which inhibition is half-maximal.

Holding throughout (format): biochemical
Assay [1] addresses CDK7/cyclinH/MAT1 complex (Homo sapiens, UniProt P50613). Put plainly: In-vitro enzymatic inhibitory activity testing, CDK7 inhibition assay (Caliper EZ Reader II). The settings on record: CDK7/cyclinH/MAT1 6 nM, 180 min at 27° C. How it is done:
(§1) CDK12/CyclinK was diluted in an assay buffer (80 mM MES PH 6.5, 0.01% Tween 20, 50 ug/mL BSA, 10 mM MgCl2) to afford a corresponding enzyme solution with the 2.4 concentration. A compound was dissolved in dimethyl sulfoxide (DMSO) at a concentration of 10 mM. […] 2 ul of a test compound solution was mixed with 5 ul of the enzyme solution; after incubation for 10 min, 5 ul of the polypeptide substrate and ATP mixed solution was added; incubation was carried out for 180 min at 27° C.; and then, the reaction was terminated by adding 4 uL of EDTA with a concentration of 120 mM to each sample. […] A CDK9/cyclinT1 complex (8 nM) and a “5-FAM-CDK9tide” peptide substrate (2 IM, synthetic fluorophore-labeled peptide with the following sequence: 5-FAM-GSRTPMY-NH2, wherein 5-FAM was as defined above and NH2 represented C-terminal amide) were used for a CDK9 inhibition assay. […] A CDK2/cyclinE1 complex (0.5 nM) and “5-FAM-CDK7tide” (2 μM) as defined above were used for CDK2 inhibition assay.
(§2) A reaction mixture was analyzed on Caliper EZ Reader II by electrophoretic separation of a fluorogenic substrate and a phosphorylated product. Data were calculated by using GraphPad Prism version 6.0, and IC50 values were adjusted and obtained by using a nonlinear regression model of a dose response curve.

Assay [2] concerns the target T1, CDK12 (aa686-1082)/cyclinK complex (Homo sapiens, UniProt Q9NYV4).
T1 construct: A CDK12 (aa686-1082)/cyclinK complex (50 nM)
Description: In-vitro enzymatic inhibitory activity testing, CDK12 inhibition assay (Caliper EZ Reader II). The note with it: 180 min at 27° C. How it is done:
An assay was carried out in a U-bottom 384-well plate (coming, 4512#), and the reaction temperature was 27° C. CDK7/CyclinH was diluted in an assay buffer (20 mM MES PH 6.75, 0.01% Tween 20, 50 ug/mL BSA, 6 mM MgCl2) to afford a corresponding enzyme solution with the 2.4× concentration. CDK2/CyclinE1 was diluted in an assay buffer (20 mM MES PH 6.75, 0.01% Tween 20, 50 ug/mL BSA, 6 mM MgCl2) to afford a corresponding enzyme solution with the 2.4× concentration. CDK9/CyclinT1 was diluted in an assay buffer (20 mM MES PH 6.75, 0.01% Tween 20, 50 ug/mL BSA, 10 mM MgCl2) to afford a corresponding enzyme solution with the 2.4× concentration. CDK12/CyclinK was diluted in an assay buffer (80 mM MES PH 6.5, 0.01% Tween 20, 50 ug/mL BSA, 10 mM MgCl2) to afford a corresponding enzyme solution with the 2.4 concentration. A compound was dissolved in dimethyl sulfoxide (DMSO) at a concentration of 10 mM. During use, the compound was diluted with DMSO into 10 concentration gradients from 25 nM to 500 uM, and respectively diluted by 8.3 folds in the assay buffer to afford a compound solution with a 6× concentration. A polypeptide substrate and ATP were diluted in the assay buffer to afford a polypeptide substrate and ATP mixed solution with a 2.4× concentration. 2 ul of a test compound solution was mixed with 5 ul of the enzyme solution; after incubation for 10 min, 5 ul of the polypeptide substrate and ATP mixed solution was added; incubation was carried out for 180 min at 27° C.; and then, the reaction was terminated by adding 4 uL of EDTA with a concentration of 120 mM to each sample. […]. Specifically, a CDK7/cyclinH/MAT1 complex (6 nM) and a “5-FAMCD K 7 tide” peptide substrate (2 μM, synthetic fluorophore-labeled peptide with the following sequence: 5-FAM-[…], wherein “5-FAM” refers to 5-carboxyfluorescein) were used for a CDK7 inhibition assay. A CDK9/cyclinT1 complex (8 nM) and a “5-FAM-CDK9tide” peptide substrate (2 IM, synthetic fluorophore-labeled peptide with the following sequence: 5-FAM-GSRTPMY-NH2, wherein 5-FAM was as defined above and NH2 represented C-terminal amide) were used for a CDK9 inhibition assay. A CDK12 (aa686-1082)/cyclinK complex (50 nM) and “5-FAM-CDK9tide” (2 μM) as defined above were used for a CDK12 inhibition assay. A CDK2/cyclinE1 complex (0.5 nM) and “5-FAM-CDK7tide” (2 μM) as defined above were used for CDK2 inhibition assay.
as §2

The target in assay [3] is CDK2/cyclinE1 complex (Homo sapiens, UniProt P24941). Description: In-vitro enzymatic inhibitory activity testing, CDK2 inhibition assay (Caliper EZ Reader II). The settings on record: CDK2/cyclinE1 0.5 nM, 180 min at 27° C. How it is done: CDK12/CyclinK was diluted in an assay buffer (80 mM MES PH 6.5, 0.01% Tween 20, 50 ug/mL BSA, 10 mM MgCl2) to afford a corresponding enzyme solution with the 2.4 concentration. […] A CDK9/cyclinT1 complex (8 nM) and a “5-FAM-CDK9tide” peptide substrate (2 IM, synthetic fluorophore-labeled peptide with the following sequence: 5-FAM-GSRTPMY-NH2, wherein 5-FAM was as defined above and NH2 represented C-terminal amide) were used for a CDK9 inhibition assay. […] A CDK2/cyclinE1 complex (0.5 nM) and “5-FAM-CDK7tide” (2 μM) as defined above were used for CDK2 inhibition assay.
as §2

Assay [4] deals with CDK9/cyclinT1 complex (Homo sapiens, UniProt P50750). Description: In-vitro enzymatic inhibitory activity testing, CDK9 inhibition assay (Caliper EZ Reader II). The note with it: CDK9/cyclinT1 8 nM, 180 min at 27° C. How it is done:
as §1, §2

Where [5] appears, read: CDK12/cyclinK 50 nM, read-out: CDK12 IC50.

Chain of CDK7/cyclinH/MAT1 complex (P50613 whole entry, species assumed): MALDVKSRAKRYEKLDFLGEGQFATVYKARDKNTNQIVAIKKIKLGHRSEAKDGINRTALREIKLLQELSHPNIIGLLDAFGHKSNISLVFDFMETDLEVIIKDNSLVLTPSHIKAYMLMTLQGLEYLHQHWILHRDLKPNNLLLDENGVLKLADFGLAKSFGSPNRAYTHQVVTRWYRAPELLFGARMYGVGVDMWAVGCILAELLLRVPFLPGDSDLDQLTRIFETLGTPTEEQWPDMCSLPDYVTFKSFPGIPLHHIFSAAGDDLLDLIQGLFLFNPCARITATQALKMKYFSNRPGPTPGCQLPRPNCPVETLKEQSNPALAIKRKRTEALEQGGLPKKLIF
Chain of CDK7/cyclinH/MAT1 complex (P51946 whole entry partner, species assumed): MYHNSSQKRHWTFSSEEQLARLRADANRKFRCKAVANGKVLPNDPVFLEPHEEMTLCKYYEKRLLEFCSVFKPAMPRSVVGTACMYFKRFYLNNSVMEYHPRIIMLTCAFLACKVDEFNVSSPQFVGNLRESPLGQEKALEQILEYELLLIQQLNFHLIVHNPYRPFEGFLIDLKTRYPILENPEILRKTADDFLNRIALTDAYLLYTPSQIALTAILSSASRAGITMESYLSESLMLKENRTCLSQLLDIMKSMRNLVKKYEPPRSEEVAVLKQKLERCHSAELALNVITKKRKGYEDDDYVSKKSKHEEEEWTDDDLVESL
Chain of CDK7/cyclinH/MAT1 complex (P51948 whole entry partner, species assumed): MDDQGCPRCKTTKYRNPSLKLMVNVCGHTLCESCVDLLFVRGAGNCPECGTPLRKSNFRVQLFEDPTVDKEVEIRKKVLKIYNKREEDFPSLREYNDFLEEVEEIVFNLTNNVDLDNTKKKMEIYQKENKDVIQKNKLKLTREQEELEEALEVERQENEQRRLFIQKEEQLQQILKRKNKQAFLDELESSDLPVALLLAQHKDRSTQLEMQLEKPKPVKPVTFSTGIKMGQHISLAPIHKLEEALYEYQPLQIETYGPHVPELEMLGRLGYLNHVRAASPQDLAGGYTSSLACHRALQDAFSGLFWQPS
T1 sequence (Q9NYV4 686-1082, species assumed): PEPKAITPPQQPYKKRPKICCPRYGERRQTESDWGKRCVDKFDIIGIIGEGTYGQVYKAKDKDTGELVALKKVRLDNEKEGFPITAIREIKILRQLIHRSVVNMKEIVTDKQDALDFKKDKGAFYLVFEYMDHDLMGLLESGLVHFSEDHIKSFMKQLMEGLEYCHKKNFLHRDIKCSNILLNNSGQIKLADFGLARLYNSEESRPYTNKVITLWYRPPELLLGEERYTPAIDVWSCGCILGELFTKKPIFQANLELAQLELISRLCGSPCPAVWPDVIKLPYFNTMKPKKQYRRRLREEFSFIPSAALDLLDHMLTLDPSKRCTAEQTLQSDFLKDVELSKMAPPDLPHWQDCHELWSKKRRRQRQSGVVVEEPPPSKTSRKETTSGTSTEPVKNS
T1 sequence (O75909 whole entry partner, species assumed, the tested form may be a part): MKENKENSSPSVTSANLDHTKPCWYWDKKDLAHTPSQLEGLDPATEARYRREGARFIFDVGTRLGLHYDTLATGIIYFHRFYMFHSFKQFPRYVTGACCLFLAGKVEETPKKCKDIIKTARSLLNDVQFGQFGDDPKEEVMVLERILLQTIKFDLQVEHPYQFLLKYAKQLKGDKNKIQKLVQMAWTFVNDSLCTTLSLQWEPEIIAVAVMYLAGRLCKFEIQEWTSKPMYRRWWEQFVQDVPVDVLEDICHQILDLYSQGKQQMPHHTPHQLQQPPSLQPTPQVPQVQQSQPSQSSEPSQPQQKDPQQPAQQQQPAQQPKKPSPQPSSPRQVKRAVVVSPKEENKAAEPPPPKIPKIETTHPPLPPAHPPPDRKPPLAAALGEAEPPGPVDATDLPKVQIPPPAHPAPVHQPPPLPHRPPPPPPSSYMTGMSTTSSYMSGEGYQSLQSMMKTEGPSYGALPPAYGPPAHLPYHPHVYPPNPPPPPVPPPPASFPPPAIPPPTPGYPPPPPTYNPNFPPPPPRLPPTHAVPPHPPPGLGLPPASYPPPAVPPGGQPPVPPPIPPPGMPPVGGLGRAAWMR
Chain of CDK9/cyclinT1 complex (P50750 whole entry, species assumed): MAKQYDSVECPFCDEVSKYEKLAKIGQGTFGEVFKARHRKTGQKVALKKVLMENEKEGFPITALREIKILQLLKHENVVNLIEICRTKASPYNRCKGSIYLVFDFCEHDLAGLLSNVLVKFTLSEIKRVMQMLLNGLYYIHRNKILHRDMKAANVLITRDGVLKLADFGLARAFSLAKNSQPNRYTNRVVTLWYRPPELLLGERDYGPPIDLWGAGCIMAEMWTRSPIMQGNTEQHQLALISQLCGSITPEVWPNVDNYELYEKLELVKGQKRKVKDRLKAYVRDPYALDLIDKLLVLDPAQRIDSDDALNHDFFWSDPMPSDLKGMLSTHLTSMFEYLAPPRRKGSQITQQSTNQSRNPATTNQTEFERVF
Chain of CDK9/cyclinT1 complex (O60563 whole entry partner, species assumed): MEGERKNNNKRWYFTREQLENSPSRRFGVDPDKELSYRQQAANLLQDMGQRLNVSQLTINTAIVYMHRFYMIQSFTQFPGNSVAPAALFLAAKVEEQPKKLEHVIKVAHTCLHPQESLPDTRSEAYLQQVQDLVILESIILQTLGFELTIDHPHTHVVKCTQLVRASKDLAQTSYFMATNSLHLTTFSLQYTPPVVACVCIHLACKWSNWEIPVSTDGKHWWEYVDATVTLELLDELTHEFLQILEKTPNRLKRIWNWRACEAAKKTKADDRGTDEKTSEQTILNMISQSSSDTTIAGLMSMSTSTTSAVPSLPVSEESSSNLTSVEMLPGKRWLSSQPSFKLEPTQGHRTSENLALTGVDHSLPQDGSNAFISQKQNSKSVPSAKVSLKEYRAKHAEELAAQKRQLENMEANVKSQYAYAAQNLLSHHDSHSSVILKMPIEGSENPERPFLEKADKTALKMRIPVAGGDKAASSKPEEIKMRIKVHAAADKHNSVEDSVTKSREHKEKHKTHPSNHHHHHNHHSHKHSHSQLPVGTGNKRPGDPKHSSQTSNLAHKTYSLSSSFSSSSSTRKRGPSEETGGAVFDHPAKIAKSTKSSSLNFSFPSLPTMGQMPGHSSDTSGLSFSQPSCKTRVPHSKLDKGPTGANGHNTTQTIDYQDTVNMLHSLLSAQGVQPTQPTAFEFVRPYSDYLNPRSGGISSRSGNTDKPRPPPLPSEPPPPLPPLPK

For `CP(C)(=O)c1cccc2c(-c3nc(N[C@H](CO)C4CCCCC4)ncc3C(F)(F)F)c[nH]c12` [Compound 169, (S)-(3-(2-((1-cyclohexyl-2-hydroxyethyl)amino)-5-(trifluoromethyl)pyrimidin-4-yl)-1H-indole-7-yl)dimethylphosphine oxide], the IC50 in assay [1] fell in the range of 20 to 200 nM. Regarding `COc1ccc2c(-c3nc(N[C@@H](C)CO)ncc3C(F)(F)F)c[nH]c2c1P(C)(C)=O` [Compound 106, (S)-(3-(2-((1-hydroxypropan-2-yl)amino)-5-(trifluoromethyl)pyrimidin-4-yl)-6-methoxy-1H-indole-7-yl)dimethylphosphine oxide], the IC50 lay in the range of 5000 to 50000 nM in assay [2] (setting [5]), 200 to 5000 nM in assay [3], 5000 to 50000 nM in assay [4] and 20 to 200 nM in assay [1].

`CP(C)(=O)c1cccc2c(-c3nc(NC4CC(F)(F)CC4O)ncc3C(F)(F)F)c[nH]c12` (single isomer, unassigned) [Compound 190]: the IC50 in assay [1] lay in the range of 20 to 200 nM. With `C[C@@H](CO)Nc1nccc(-c2c[nH]c3c(P(C)(C)=O)cccc23)n1` [Compound 186], the IC50 in assay [2] (setting [5]) was > 50000 nM; in assay [3] it was > 50000 nM; in assay [4] it was > 50000 nM; in assay [1], 5000 to 50000 nM.

For `CC1([C@@H](CO)Nc2ncc(C(F)(F)F)c(-c3c[nH]c4c(P(C)(C)=O)cccc34)n2)CC1` [Compound 112, (S)-(3-(2-((2-hydroxy-1-(1-methylcyclopropyl)ethyl)amino)-5-(trifluoromethyl)pyrimidin-4-yl)-1H-indole-7-yl)dimethylphosphine oxide], the half-maximal inhibitory concentration (IC50) was > 50000 nM in assay [2] (setting [5]), 5000 to 50000 nM in assay [3], > 50000 nM in assay [4] and 20 to 200 nM in assay [1].

Take `CP(C)(=O)c1cccc2c(-c3nc(N[C@@H](CO)C4CCC4)ncc3C(F)(F)F)c[nH]c12` [Compound 113, (R)-(3-(2-((1-cyclobutyl-2-hydroxyethyl)amino)-5-(trifluoromethyl)pyrimidin-4-yl)-1H-indole-7-yl)dimethylphosphine oxide]: the IC50 in assay [2] (setting [5]) is > 50000 nM; in assay [3], 5000 to 50000 nM; in assay [4], > 50000 nM; in assay [1], 20 to 200 nM. `CP(C)(=O)c1cccc2c(-c3nc(NC4CC(F)(F)CC4O)ncc3C(F)(F)F)c[nH]c12` (single isomer, unassigned) [Compound 192]: the half-inhibitory concentration (IC50) in assay [3] was 5000 to 50000 nM; in assay [1], 20 to 200 nM.

In the case of `CN[C@@H]1C[C@H]2O[C@@](C)([C@@H]1OC)n1c3ccccc3c3c4c(c5c6ccccc6n2c5c31)C(=O)NC4` [Staurosporine, staurosporine, reference compound], the IC50 in assay [2] (CDK12 IC50, CDK12/cyclinK 50 nM) lay in the range of 200 to 5000 nM. As for `CP(C)(=O)c1cccc2c(-c3nc(NC4CC(F)(F)CC4O)ncc3C(F)(F)F)c[nH]c12` (single isomer, unassigned) [Compound 189], in assay [1], the IC50 fell in the range of 20 to 200 nM. The same measure, in the same setting: for `CP(C)(=O)c1cccc2c(-c3nc(NC4CCC[C@@H]4CN)ncc3C(F)(F)F)c[nH]c12` (stereo in doubt) [Compound 132, (3-(2-((trans-2-(aminomethyl)cyclopentyl)amino)-5-(trifluoromethyl)pyrimidin-4-yl)-1H-indole-7-yl)dimethylphosphine oxide] the value was < 20 nM; for `C[C@@H](CO)Nc1ncc(C(F)(F)F)c(-c2n[nH]c3c(P(C)(C)=O)cccc23)n1` [Compound 193, (S)-(3-(2-((1-hydroxypropan-2-yl)amino)-5-(trifluoromethyl)pyrimidin-4-yl)-1H-indazol-7-yl)dimethylphosphine oxide], 20 to 200 nM; for `CP(C)(=O)c1cccc2c(-c3nc(NCC4(O)CCCCCC4)ncc3C(F)(F)F)c[nH]c12` [Compound 152], 20 to 200 nM. Still for that read-out and setting: to `CP(C)(=O)c1cccc2c(-c3nc(N[C@@H]4CC(F)(F)C[C@H]4O)ncc3C(F)(F)F)c[nH]c12` (relative stereo) [Compound 188, (3-(2-(trans-4,4-difluoro-2-hydroxycyclopentylamino)-5-(trifluoromethyl)pyrimidin-4-yl)-1H-indole-7-yl)dimethylphosphine oxide] belongs < 20 nM; to `CP(C)(=O)c1cccc2c(-c3nc(N[C@@H]4CC(F)(F)C[C@@H]4O)ncc3C(F)(F)F)c[nH]c12` (relative stereo) [Compound 187, (3-(2-(cis-4,4-difluoro-2-hydroxycyclopentylamino)-5-(trifluoromethyl)pyrimidin-4-yl)-1H-indole-7-yl)dimethylphosphine oxide], 20 to 200 nM.

For the compound `C[C@@H](CO)Nc1ncc(C(F)(F)F)c(-c2c[nH]c3nc(C4CCCCO4)ccc23)n1` (single isomer, unassigned) [Compound 184], the IC50 in assay [1] was in the range of 20 to 200 nM. On to `C[C@@H](CO)Nc1ncc(C(F)(F)F)c(-c2c[nH]c3nc(C4CCCCO4)ccc23)n1` (single isomer, unassigned) [Compound 183], for which the IC50 in assay [1] was 20 to 200 nM. Same read-out and setting: for `CP(C)(=O)c1cccc2c(-c3nc(NC4CCC[C@H]4CN)ncc3C(F)(F)F)c[nH]c12` (stereo in doubt) [Compound 131, (3-(2-((cis-2-(aminomethyl)cyclopentyl)amino)-5-(trifluoromethyl)pyrimidin-4-yl)-1H-indole-7-yl)dimethylphosphine oxide] the value was < 20 nM; for `CN(C)C[C@@H]1CCCC1Nc1ncc(C(F)(F)F)c(-c2c[nH]c3c(P(C)(C)=O)cccc23)n1` (stereo in doubt) [Compound 133, (3-(2-((cis-2-((dimethylamino)methyl)cyclopentyl)amino)-5-(trifluoromethyl)pyrimidin-4-yl)-1H-indole-7-yl)dimethylphosphine oxide], < 20 nM; for `CCCC[C@H](CO)Nc1ncc(C(F)(F)F)c(-c2c[nH]c3c(P(C)(C)=O)cccc23)n1` [Compound 170, (R)-(3-(2-((1-hydroxyhexan-2-yl)amino)-5-(trifluoromethyl)pyrimidin-4-yl)-1H-indole-7-yl)dimethylphosphine oxide], 20 to 200 nM. In the case of `CN(C)C[C@H]1CCCC1Nc1ncc(C(F)(F)F)c(-c2c[nH]c3c(P(C)(C)=O)cccc23)n1` (stereo in doubt) [Compound 134, (3-(2-((trans-2-((dimethylamino)methyl)cyclopentyl)amino)-5-(trifluoromethyl)pyrimidin-4-yl)-1H-indole-7-yl)dimethylphosphine oxide], the IC50 in assay [1] was < 20 nM.
